Measured values reported in the SangsterLogP compilation.

Experiment: method code SF, from Hansch, C. & Leo, A. (1987). Log P database [Dataset]. Pomona College Medicinal Chemistry Project.
`Cc1ccc2[nH]c(CCCCCCc3nc4cc(C)ccc4[nH]3)nc2c1` showed a logP of 1.76. `NC(=O)NCc1ccccc1` gave a logP of 0.73. `O=C1OC(c2ccccc2)c2ccccc21` (stereo unspecified) showed a logP of 2.64. Work on `COc1nnccc1N(C)C` yielded a logP of 0.9. Molecule `Nc1cccc([N+](=O)[O-])c1N` has a logP of 1.27. For `CCCCCCCNC(=O)c1ccccc1`, the logP was 2.94. `CC1=Nc2cc([N+](=O)[O-])c(Cl)cc2S(=O)(=O)N1` showed a logP of 1.42. Work on `OC(c1nc2cc(Cl)ccc2[nH]1)C(O)c1nc2cc(Cl)ccc2[nH]1` (stereo unspecified) yielded a logP of 1.21. `Nc1nccs1` showed a logP of 0.38. `O=C(NCC(O)c1ccc([N+](=O)[O-])cc1)C(F)(F)F` (stereo unspecified) showed a logP of 1.46. Molecule `O=NN(CCF)C(=O)NCCCl` has a logP of 0.95. In the case of `C#CCO`, the logP is reported as -0.38. Molecule `CN(C)C(=O)c1ccoc1` has a logP of 0.24. `O=C(c1ccncc1)c1ccccc1O` gave a logP of 2.13. For `CCCOc1cccc(C=C(C(=O)OCC)C(=O)OCC)c1`, the logP was 4. In the case of `c1cnc2[nH]ccc2c1`, the logP is reported as 1.82. Work on `Clc1nnnn1-c1ccccc1` yielded a logP of 1.48. `CN(C)CCc1cccs1` gave a logP of 1.99. `CC(=S)Nc1ccccc1` showed a logP of 1.71. `CCOC(=O)OCC` showed a logP of 1.21. Molecule `CCCCCC(C)O` (stereo unspecified) has a logP of 2.31. `CN(C)Cc1ccco1` showed a logP of 1.19. Work on `COP(=O)(CC(C)=O)OC` yielded a logP of 0.86. With `O=C1C=CCCC1` the logP was 0.61. Work on `Cl/C=C/Cl` yielded a logP of 2.09. For `O=c1[nH]c(=O)c2[nH]cnc2[nH]1`, the logP was -0.73. In the case of `COc1cc(C(=O)C=CN2CC=CC2)cc(OC)c1OC`, the logP is reported as 1.77. In the case of `CC(=O)c1ccccc1Cl`, the logP is reported as 2.09. Work on `CC1=NCCN1CCO` yielded a logP of 0.04. `Cc1ccc(C(O)c2ccccc2)cc1` (stereo unspecified) gave a logP of 3.13. For `C(=C\c1ccccn1)/c1ccccn1`, the logP was 2.11. Work on `CO[C@@H]1O[C@H](COC(C)=O)[C@@H](OC(C)=O)[C@H](NC(=O)N(CCCl)N=O)[C@H]1OC(C)=O` yielded a logP of 0.67. Work on `CCCCSC(C)(C)C(N)=O` yielded a logP of 1.81. `c1ccc2cnncc2c1` showed a logP of 0.57. With `N#CN=[N+]([O-])c1cccc(Cl)c1` the logP was 2.4. `C1OCOCO1` gave a logP of -0.43. Work on `CC1=Nc2c(I)cc(Cl)cc2S(=O)(=O)N1` yielded a logP of 1.81. `CN(C)C(=O)c1ccsc1` showed a logP of 0.55. `O=C(/C=C/c1ccccc1)N1CCCCC1` gave a logP of 2.74. `CC(=O)Nc1ccc2c(c1)S(=O)(=O)c1ccccc1C2=O` gave a logP of 2.35. Work on `COP(=O)(NC(C)(C)C)Oc1cc(Cl)c(Cl)cc1Cl` (stereo unspecified) yielded a logP of 3.83. For `COc1cccc(OC(=O)N(C)C)c1`, the logP was 1.6. In the case of `CCOC(CCC#N)OCC`, the logP is reported as 0.75. For `O=[N+]([O-])c1ccc2[nH]c(CCCCc3nc4cc([N+](=O)[O-])ccc4[nH]3)nc2c1`, the logP was 2.45. With `CC(C)C1=Nc2cc(Cl)ccc2S(=O)(=O)N1` the logP was 2. Work on `NC(=O)CCl` yielded a logP of -0.53. `N#CN=[N+]([O-])c1ccc([N+](=O)[O-])cc1` showed a logP of 1.51. Work on `O=Cc1cccs1` yielded a logP of 1.02. Molecule `CNC(=O)O/N=C(\C)C(C)(C)[N+](=O)[O-]` has a logP of 0.66. Work on `CC(=O)Nc1ccc(N(C)C)cc1` yielded a logP of 1. `CCOC(=O)C(=Cc1ccccc1[N+](=O)[O-])C(=O)OCC` showed a logP of 2.54. For `CCCOc1cn[nH]c1`, the logP was 1.42. Work on `O=C(NP(=O)(N1CC1)N1CC1)c1cc(I)ccc1I` yielded a logP of 1.35. Work on `O=C1C(NCCO)=C(N2CC2)C(=O)C(NCCO)=C1N1CC1` yielded a logP of -1.48. Molecule `O=[N+]([O-])c1ccc(OCCn2ccnc2)cc1` has a logP of 1.69. In the case of `CN(C)C(=O)Nc1ccc([N+](=O)[O-])cc1`, the logP is reported as 1.51. In the case of `ClCCOCCCl`, the logP is reported as 1.29. In the case of `Cc1ccccc1Cl`, the logP is reported as 3.42. Work on `CN(C)CC(CN1c2ccccc2Sc2ccccc21)N(C)C` (stereo unspecified) yielded a logP of 4.76. `CN(C)c1ncnc2sccc12` gave a logP of 1.82. With `Cc1cccc(C=C(C(N)=O)C(N)=O)c1` the logP was 0.4. With `OCC(Br)(Br)Br` the logP was 2.1. In the case of `CC[C@H]1OC(=O)[C@H](C)[C@@H](O[C@H]2C[C@@](C)(OC)[C@@H](O)[C@H](C)O2)[C@H](C)[C@@H](O[C@@H]2O[C@H](C)C[C@H](NC)[C@H]2O)[C@](C)(O)C[C@@H](C)C(=O)[C@H](C)[C@@H](O)[C@]1(C)O`, the logP is reported as 2.21. Work on `c1cc2[nH]cnc2cn1` yielded a logP of 0.18. In the case of `Cc1ccc(C(N)=O)cc1`, the logP is reported as 1.18. Work on `Brc1ccccn1` yielded a logP of 1.42. `N#CN=[N+]([O-])c1ccc(Br)cc1` showed a logP of 2.5. `O=[N+]([O-])c1ccc(C=Cc2nccs2)o1` gave a logP of 1.97. In the case of `CC(C)(C)CC1=Nc2ccc(Cl)cc2S(=O)(=O)N1`, the logP is reported as 2.71. `CCC(C)C(=O)Nc1ccc(Cl)c(Cl)c1` (stereo unspecified) showed a logP of 4.11. Work on `Nc1ccc2nc3ccccc3cc2c1` yielded a logP of 2.62. Molecule `O=S1(=O)NC(C2CC=CC2)=Nc2ccccc21` has a logP of 1.53. `CC(C)(C)c1ccc(C(N)=O)cc1` gave a logP of 2.51. Work on `O=S1(=O)N=C(C2CC=CCC2)Nc2ccccc21` (stereo unspecified) yielded a logP of 2.05. With `Clc1ccc2[nH]c(CCCc3nc4cc(Cl)ccc4[nH]3)nc2c1` the logP was 1.88. `CN(CCO)C1=C(N2CC2)C(=O)C(N(C)CCO)=C(N2CC2)C1=O` showed a logP of -0.37.
